Laboratory results from ChEMBL document CHEMBL1142208, “Protection of mice from lethal Escherichia coli infection by chimeric human bactericidal/permeability-increasing protein and immunoglobulin G1 Fc gene delivery” (2007).

Columns and labels:
Mus musculus [1] = assay: Survival rate of BALB/c mouse infected with Escherichia coli O111:B4 at 25 ug, im within 48 hrs; assay type: functional
Mus musculus [2] = assay: Mortality rate of BALB/c mouse infected with Escherichia coli O111:B4 at 25 ug, im within 48 hrs; assay type: functional

CO/N=C(\C(=O)N[C@@H]1C(=O)N2C(C(=O)O)=C(COC(N)=O)CS[C@H]12)c1ccco1 [CEFUROXIME]
Survival (Mus musculus [1]): 5%
Survival (Mus musculus [2]): 91.4%
